Data reported in patent publication US20250215039A1, “NUCLEOSIDES FOR TREATING CANCER” (PRIMEFOUR THERAPEUTICS, INC., priority 2022, published 2025).
Read-outs that look alike come from different tables or passages of the source.

System: cancer cell lines
Experiment: Cancer cell proliferation activity (CellTiterGlo, 72 h)
Type: cell-based
Settings: 72 h, 72 h, read-out: IC50 cell proliferation
Summary of the method: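 Cells seeded overnight at 37 °C, then dosed with compound at 0.1% final DMSO and incubated 72 h at 37 °C (5% or 10% CO2 by medium).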

Structure (SMILES): Nc1nc(F)nc2c1ncn2[C@@H]1O[C@H](CO)[C@@H](O)[C@H]1O [compound 184, (2R,3R,4S,5R)-2-(6-amino-2-fluoro-9H-purin-9-yl)-5-(hydroxymethyl)tetrahydrofuran-3,4-diol]
- IC50 (5637 (bladder)): 190 nM
- IC50 (CLS439 (bladder)): 60 nM
- IC50 (HS729 (muscle)): 100 nM
- IC50 (J82 (bladder)): 100 nM
- IC50 (JAR (placenta)): 40 nM
- IC50 (MT3 (breast)): 90 nM
- IC50 (PANCI (pancreas)): 130 nM
- IC50 (PC3 (prostate)): 40 nM
- IC50 (RD (muscle)): 60 nM
- IC50 (T24 (bladder)): 60 nM
- IC50 (Homo sapiens, 22Rv1, 72 h, 22RV1 (prostate)): 220 nM
- IC50 (Homo sapiens, 786-0, 72 h, 786O (kidney)): 50 nM
- IC50 (Homo sapiens, A204, 72 h, A204 (muscle)): 20 nM
- IC50 (Homo sapiens, A549, 72 h, A549 (lung)): 40 nM
- IC50 (Homo sapiens, A673, 72 h, A673 (bone)): 270 nM
- IC50 (Homo sapiens, A2780, 72 h, A2780 (ovary)): 150 nM
- IC50 (Homo sapiens, A-375, 72 h, A375 (skin)): 40 nM
- IC50 (Homo sapiens, A-431, 72 h, A431 (skin)): 40 nM
- IC50 (Homo sapiens, ACHN, ACHN (kidney)): 20 nM
- IC50 (Homo sapiens, ASPC1, 72 h, ASPC1 (pancreas)): 30 nM
- IC50 (Homo sapiens, BT-20, 72 h, BT20 (breast)): 30 nM
- IC50 (Homo sapiens, BXPC-3, 72 h, BXPC3 (pancreas)): 80 nM
- IC50 (Homo sapiens, C-33-A, C33A (endometrial)): 50 nM
- IC50 (Homo sapiens, CAKI-1, 72 h, CAKI1 (kidney)): 10 nM
- IC50 (Homo sapiens, COLO 205, 72 h, COLO205 (colon)): 120 nM
- IC50 (Homo sapiens, COLO-678, 72 h, COLO678 (colon)): 60 nM
- IC50 (Homo sapiens, Ca-Ski, CASKI (endometrial)): 30 nM
- IC50 (Homo sapiens, Caco-2, 72 h, CACO2 (colon)): 190 nM
- IC50 (Homo sapiens, Calu-6, 72 h, CALU6 (lung)): 30 nM
- IC50 (Homo sapiens, DLD-1, 72 h, DLD1 (colon)): 90 nM
- IC50 (Homo sapiens, DU-145, 72 h, DU145 (prostate)): 20 nM
- IC50 (Homo sapiens, EFO-21, 72 h, EFO21 (ovary)): 70 nM
- IC50 (Homo sapiens, EJ-28, 72 h, EJ28 (bladder)): 30 nM
- IC50 (Homo sapiens, Granta-519, 72 h, GRANTA-519 (hematological)): 110 nM
- IC50 (Homo sapiens, HCT-15, 72 h, HCT15 (colon)): 40 nM
- IC50 (Homo sapiens, HCT-116, 72 h, HCT116 (colon)): 140 nM
- IC50 (Homo sapiens, HEK293, 72 h, HEK293 (kidney)): 50 nM
- IC50 (Homo sapiens, HL-60, 72 h, HL-60 (hematological)): 40 nM
- IC50 (Homo sapiens, HT-29, 72 h, HT29 (colon)): 70 nM
- IC50 (Homo sapiens, HT-1080, 72 h, HT1080 (connective tissue)): 70 nM
- IC50 (Homo sapiens, HeLa, HELA (endometrial)): 70 nM
- IC50 (Homo sapiens, HepG2, 72 h, HEPG2 (liver)): 40 nM
- IC50 (Homo sapiens, Hs-578T, HS578T (breast)): 80 nM
- IC50 (Homo sapiens, IGROV-1, 72 h, IGROV1 (ovary)): 50 nM
- IC50 (Homo sapiens, IMR-90, 72 h, IMR90 (lung)): 30 nM
- IC50 (Homo sapiens, JEG-3, 72 h, JEG3 (placenta)): 40 nM
- IC50 (Homo sapiens, JIMT-1, 72 h, JIMT1 (breast)): 20 nM
- IC50 (Homo sapiens, K562, 72 h, K-562 (hematological)): 120 nM
- IC50 (Homo sapiens, Kasumi 1, 72 h, KASUMI-1 (hematological)): 10 nM
- IC50 (Homo sapiens, L-363, 72 h, L-363 (hematological)): 20 nM
- IC50 (Homo sapiens, LoVo, LOVO (colon)): 20 nM
- IC50 (Homo sapiens, MCF7, 72 h, MCF7 (breast)): 100 nM
- IC50 (Homo sapiens, MDA-MB-231, 72 h, MDAMB231 (breast)): 40 nM
- IC50 (Homo sapiens, MDA-MB-435, 72 h, MDAMB435 (skin)): 50 nM
- IC50 (Homo sapiens, MDA-MB-436, 72 h, MDAMB436 (breast)): 40 nM
- IC50 (Homo sapiens, MDA-MB-468, 72 h, MDAMB468 (breast)): 80 nM
- IC50 (Homo sapiens, MG-63, 72 h, MG63 (bone)): 390 nM
- IC50 (Homo sapiens, MHH-ES-1, 72 h, MHHES1 (bone)): 70 nM
- IC50 (Homo sapiens, MIA PaCa-2, 72 h, MIAPACA2 (pancreas)): 130 nM
- IC50 (Homo sapiens, MINO, MINO (hematological)): 10 nM
- IC50 (Homo sapiens, MV4-11, 72 h, MV4-11 (hematological)): 20 nM
- IC50 (Homo sapiens, NCI-H23, 72 h, NCI-H23 (lung)): 40 nM
- IC50 (Homo sapiens, NCI-H82, 72 h, NCIH82 (lung)): 60 nM
- IC50 (Homo sapiens, NCI-H292, 72 h, NCIH292 (lung)): 90 nM
- IC50 (Homo sapiens, NCI-H460, 72 h, NCIH460 (lung)): 40 nM
- IC50 (Homo sapiens, OVCAR-3, 72 h, OVCAR3 (ovary)): 40 nM
- IC50 (Homo sapiens, OVCAR-4, 72 h, OVCAR4 (ovary)): 50 nM
- IC50 (Homo sapiens, PLC-PRF-5, 72 h, PLCPRF5 (liver)): 230 nM
- IC50 (Homo sapiens, Panc1005, 72 h, PANC1005 (pancreas)): 50 nM
- IC50 (Homo sapiens, Ramos, RAMOS (hematological)): 140 nM
- IC50 (Homo sapiens, SAOS-2, 72 h, SAOS2 (bone)): 50 nM
- IC50 (Homo sapiens, SF-268, 72 h, SF268 (brain)): 160 nM
- IC50 (Homo sapiens, SF-295, 72 h, SF295 (brain)): 160 nM
- IC50 (Homo sapiens, SK-BR-3, 72 h, SKBR3 (breast)): 10 nM
- IC50 (Homo sapiens, SK-HEP1, 72 h, SKHEP1 (liver)): 20 nM
- IC50 (Homo sapiens, SK-LMS-1, 72 h, SKLMS1 (uterus)): 40 nM
- IC50 (Homo sapiens, SK-MEL-5, 72 h, SKMEL5 (skin; SKMELS [sic] in Table 9E)): 50 nM
- IC50 (Homo sapiens, SK-MEL-28, 72 h, SKMEL28 (skin)): 100 nM
- IC50 (Homo sapiens, SK-N-AS, SKNAS (brain)): 30 nM
- IC50 (Homo sapiens, SK-N-SH, SKNSH (brain)): 30 nM
- IC50 (Homo sapiens, SK-OV-3, 72 h, SKOV3 (ovary)): 50 nM
- IC50 (Homo sapiens, SNB-75, 72 h, SNB75 (brain)): 100 nM
- IC50 (Homo sapiens, SU-DHL10, 72 h, SU-DHL-10 (hematological)): 180 nM
- IC50 (Homo sapiens, SU-DHL-6, 72 h, SU-DHL-6 (hematological)): 10 nM
- IC50 (Homo sapiens, SW-620, 72 h, SW620 (colon)): 30 nM
- IC50 (Homo sapiens, TE-671, 72 h, TE671 (muscle)): 150 nM
- IC50 (Homo sapiens, THP-1, 72 h, THP-1 (hematological)): 20 nM
- IC50 (Homo sapiens, U2OS, U20S (bone; U2OS in Table 9E)): 40 nM
- IC50 (Homo sapiens, U-87 MG, U87MG (brain)): 30 nM
- IC50 (Homo sapiens, UMUC3, 72 h, UMUC3 (bladder)): 30 nM
- IC50 (Homo sapiens, UO-31, 72 h, UO31 (kidney)): 50 nM
- IC50 (Homo sapiens, WSU-NHL, WSU-NHL (hematological)): 30 nM
- IC50 (NCI-H358M, NCIH358M (lung)): 70 nM
- IC50 (PBMC, PBMC (hematological)): 180 nM
- IC50 (RD-ES, RDES (bone)): 20 nM
